Experimental data as given in US20080220056A1, “Treatment for liver disease” (UNIVERSITY OF SOUTHAMPTON, priority 2002, published 2008).

Key:
Assay type in all cases: cell-based
[1] = tested on: rat hepatocytes in comparison to rat hepatic stellate cells; experiment: Cell attachment (protein assay): gliotoxin doses killing rat hepatocytes versus hepatic stellate cells; conditions: attachment after four hours, in vitro
Protocol: Rat hepatocytes were isolated by collagenase perfusion essentially as previously described. (Harvey et al., Biochemical J., (1998) 331:273-281). Hepatocytes were cultured as outlined for hepatic stellate cells except that they were initially seeded onto collagen coated plates in William's medium E supplemented with 10% fetal calf serum and 1 μg/mL insulin for the first 2 hours.
Cells were treated with gliotoxin dissolved in DMSO vehicle (added to medium from a 2000-fold molar concentrated stock). Control cells received DMSO vehicle only (i.e., 0.05% vol/vol). All other additions to culture medium were made from concentrated stocks dissolved in DMSO or by direct addition to culture medium. Protein contents of wells were determined using the Lowry assay (Lowry et al., J. Biol. Chem., (1951)193: 265-275).
The necessary doses of gliotoxin required to kill rat hepatic stellate cells and hepatocytes were compared. Culture-activated (14-day) rat hepatic stellate cells or rat hepatocytes were treated with either 0.05% (vol/vol) DMSO or 1.5 μmol/L gliotoxin and cell attachment determined by direct assay of protein in each well after four hours as outlined in Materials and Methods. The results obtained are depicted in FIG. 3A and are expressed as the mean and standard deviation percentage attachment versus DMSO control for three separate experiments.

[2] = tested on: rat hepatic stellate cells; experiment: Hepatic stellate cell apoptosis by acridine orange staining and counting (cycloheximide or serum deprivation), rat cells
Protocol: (§1) Human hepatic stellate cells were extracted from the margins of normal human liver resected for colonic metastatic disease as previously described (Iredale et al., Clin. Sci., (1995) 89: 75-81). Rat hepatic stellate cells were extracted from normal rat liver by Pronase and collagenase digestion and purified by centrifugal elutriation as described (Arthur et al., J. Clin. Invest., (1989) 84:1076-1085). Extracted hepatic stellate cells were cultured on plastic until they were activated to a myofibroblastic phenotype after 7 to 10 days. Human and rat hepatic stellate cells were used for experiments after activation in primary culture or before fourth passage. Cells were cultured in Dulbecco's modified Eagle's medium in the presence of 16% fetal calf serum and antibiotics.
(§2) Apoptosis of hepatic stellate cells was induced by absolute serum deprivation, cycloheximide treatment (Issa et al., Gut (2001) 48: S48-S57), or exposure to nerve growth factor as previously described (Trim et al., Am. J. Pathol., (2000) 156, 1235-1243). Hepatic stellate cells were cultured in 24-well tissue culture plates. Rat and human hepatic stellate cells were exposed to proapoptotic stimuli with and without recombinant TIMP-1 (Biogenesis, Poole, UK) and other manipulations as detailed below. Following a 4 hour incubation at 37° C., nuclear morphology was assessed by adding acridine orange to each well (final concentration 1 μg/ml) and observing the cells under blue fluorescence. The total number of apoptotic bodies was counted, and any apoptotic bodies floating in the supernatant were included by racking up the objective lens. The total number of cells per field was counted, and an apoptotic index was calculated. Each condition was performed in duplicate, and three high power fields were counted for each well. […] To examine for autocrine effects, hepatic stellate cells were incubated for 18 hours with azide-free polyclonal neutralizing antibodies to TIMP-1 and a nonimmune IgG control (Santa Cruz Biotechnology, Inc., Santa Cruz, Calif.), and responses were assessed by acridine orange staining and counting.
Apoptosis was assessed by acridine orange staining. […] A normal cell lies adjacent to the apoptotic body. This technique was used to determine the percentage of apoptotic hepatic stellate cells following exposure to cyclohexamide in the presence or absence of TIMP-1. Hepatic stellate cells were exposed to 50 μM cyclohexamide and 0, 1, 10, 100 or 200 ng/ml of TIMP-1. Cells treated with serum alone were used as controls. […] Bovine serum albumin, used as a carrier for the TIMP-1 had no antiapoptotic effect.

[3] = tested on: human hepatic stellate cells; experiment: Hepatic stellate cell apoptosis by acridine orange staining and counting (cycloheximide or serum deprivation), human cells; conditions: human hepatic stellate cells
Protocol: as §1
as §2, with “Rat and human hepatic stellate cells were exposed to proapoptotic stimuli with and without recombinant TIMP-1 (Biogenesis, Poole, UK) and other manipulations as detailed below.” left out
Apoptosis was assessed by acridine orange staining. […]

[4] = tested on: caspase-3 activity in hepatic stellate cells; experiment: Caspase-3 activity in cycloheximide-treated hepatic stellate cells; conditions: 50 μM cycloheximide
Protocol: Apoptosis was quantified by a colorimetric assay for caspase-3 activity (Promega) according to the manufacturer's instructions.
Caspase-3 is a central caspase in the proapoptotic cascade (Hengartner, Nature (2000) 407, 770-776) and can be used as an alternative assay to assess apoptosis. Hepatic stellate cells were cultured in 50 μM cycloheximide with TIMP-1 at a concentration of 0, 1, 10, or 100 ng/ml. Controls where cells were incubated with either the caspase 3 inhibitor benzyloxycarbonyl-Val-Ala-Asp-fluoromethylketone or serum alone were also performed. Data are expressed as mean ±S.E. and are presented as percentage of control given the arbitrary value of 100%. * indicates p<0.001; n=3. […] Although the mean caspase-3 activity of the cells treated with 10 ng/ml TIMP-1 was slightly lower than that treated with 100 ng/ml of TIMP-1, this was not statistically significant (p=0.67 by Student's t test).

Molecule | higher concentrations required to kill rat hepatocytes in comparison to rat hepatic stellate cells [1] [fold] | apoptosis induced by cycloheximide (acridine orange) ([2]; 50 μM cycloheximide, 4 hours, TIMP-1 1-200 ng/ml) | apoptosis in serum-free conditions (acridine orange) ([2]; 24 hour incubation in serum-free conditions) | reduction in apoptotic morphology by acridine orange staining and counting ([2]; TIMP-1 10 ng/ml, cycloheximide) [%] | reduction in apoptosis by acridine orange staining and counting ([2]; TIMP-1 100 ng/ml, cycloheximide) [%] | apoptosis induced by cycloheximide (acridine orange) ([2]; rat HSC, protein at 142.5 ng/ml) | apoptosis of human HSC (cycloheximide 4 h or serum deprivation 18 h) [3] | reduction in caspase-3 activity ([4]; TIMP-1 10 ng/ml) [%] | reduction in apoptosis measured by caspase-3 activity ([4]; TIMP-1 100 ng/ml) [%] | caspase-3 activity ([4]; TIMP-1 1-100 ng/ml)
CN1C(=O)[C@]23CC4=CC=C[C@H](O)[C@H]4N2C(=O)[C@@]1(CO)SS3 [gliotoxin] | 10 to 100 | – | – | – | – | – | – | – | – | –
TIMP-1: recombinant tissue inhibitor of matrix metalloproteases 1 (Biogenesis) | – | significantly reduces apoptosis of activated hepatic stellate cells induced by cycloheximide exposure in a dose-dependent manner | identical effect | 30 | 50 | inhibited apoptosis induced by cycloheximide exposure | identical antiapoptotic effects | 50 | 50 | dose-dependent reduction in caspase-3 activity
